Data from ChEMBL document CHEMBL1123320, “Studies in potential filaricides. 18. Synthesis of 2,2'-disubstituted 5,5'-dibenzimidazolyl ketones and related compounds as potential anthelmintics” (1986).

Columns and labels:
Cricetinae gen. sp. [1] = assay: Anthelmintic activity against Ancylostoma ceylanicum in hamsters at a dose of 12.5x1 mg/kg administered perorally; type: functional, Cricetulus griseus
Cricetinae gen. sp. [2] = assay: Anthelmintic activity against Ancylostoma ceylanicum in hamsters at a dose of 25x1 mg/kg administered perorally; type: functional, Cricetulus griseus
Cricetinae gen. sp. [3] = assay: Anthelmintic activity against Ancylostoma ceylanicum in hamsters at a dose of 50x1 mg/kg administered perorally; type: functional, Cricetulus griseus
Cricetinae gen. sp. [4] = assay: Anthelmintic activity against Ancylostoma ceylanicum in hamsters at a dose of 6.25 x1 mg/kg administered perorally; type: functional, Cricetulus griseus
Cricetinae gen. sp. [5] = assay: Anthelmintic activity against Ancylostoma ceylanicum (hook worm) in hamsters at a dose of 50x1 mg/kg administered perorally; type: functional, Cricetulus griseus
Mastomys natalensis [6] = assay: Filaricidal activity against Brugia malayi in Mastomys at a dosage of 200 mg/kg x 5 administered orally; type: functional; conditions: route oral
Mastomys natalensis [7] = assay: Filaricidal activity against Brugia malayi in Mastomys at a dosage of 50 mg/kg x 5 administered intraperitoneally; type: functional; conditions: route intraperitoneal
Mastomys natalensis [8] = assay: Filaricidal activity against Dipetalonema viteae in Mastomys at a dosage of 150 mg/kg x 5 administered orally; type: functional; conditions: route oral
Mastomys natalensis [9] = assay: Filaricidal activity against Dipetalonema viteae in Mastomys at a dosage of 25 mg/kg x 5 administered subcutaneous; type: functional
Mastomys natalensis [10] = assay: Filaricidal activity against Brugia malayi in Mastomys at a dosage of 200 mg/kg x 5 administered orally at a day of 63; type: functional; conditions: route oral
Mastomys natalensis [11] = assay: Filaricidal activity against Brugia malayi in Mastomys at a dosage of 200 mg/kg x 5 administered orally at a day of 8; type: functional; conditions: route oral
Mastomys natalensis [12] = assay: Filaricidal activity against Brugia malayi in Mastomys at a dosage of 200 mg/kg x 5 administered orally at a day of 91; type: functional; conditions: route oral
Mastomys natalensis [13] = assay: Filaricidal activity against Brugia malayi in Mastomys at a dosage of 50 mg/kg x 5 administered intraperitoneally at a day of 21; type: functional; conditions: route intraperitoneal
Mastomys natalensis [14] = assay: Filaricidal activity against Brugia malayi in Mastomys at a dosage of 50 mg/kg x 5 administered intraperitoneally at a day of 42; type: functional; conditions: route intraperitoneal
Mastomys natalensis [15] = assay: Filaricidal activity against Brugia malayi in Mastomys at a dosage of 50 mg/kg x 5 administered intraperitoneally at a day of 63; type: functional; conditions: route intraperitoneal
Mastomys natalensis [16] = assay: Filaricidal activity against Brugia malayi in Mastomys at a dosage of 50 mg/kg x 5 administered intraperitoneally at a day of 8; type: functional; conditions: route intraperitoneal
Mastomys natalensis [17] = assay: Filaricidal activity against Brugia malayi in Mastomys at a dosage of 50 mg/kg x 5 administered intraperitoneally at a day of 91; type: functional; conditions: route intraperitoneal
Mastomys natalensis [18] = assay: Filaricidal activity against Dipetalonema viteae in Mastomys at a dosage of 150 mg/kg x 5 administered orally at a day of 21; type: functional; conditions: route oral
Mastomys natalensis [19] = assay: Filaricidal activity against Dipetalonema viteae in Mastomys at a dosage of 150 mg/kg x 5 administered orally at a day of 42; type: functional; conditions: route oral
Mastomys natalensis [20] = assay: Filaricidal activity against Dipetalonema viteae in Mastomys at a dosage of 150 mg/kg x 5 administered orally at a day of 8; type: functional; conditions: route oral
Mastomys natalensis [21] = assay: Filaricidal activity against Dipetalonema viteae in Mastomys at a dosage of 25 mg/kg x 5 administered subcutaneous at a day of 21; type: functional
Mastomys natalensis [22] = assay: Filaricidal activity against Dipetalonema viteae in Mastomys at a dosage of 25 mg/kg x 5 administered subcutaneous at a day of 42; type: functional
Mastomys natalensis [23] = assay: Filaricidal activity against Dipetalonema viteae in Mastomys at a dosage of 25 mg/kg x 5 administered subcutaneous at a day of 8; type: functional
Mus musculus [24] = assay: Anthelmintic activity against Syphacia obvelata in mice at a dose of 100x1 mg/kg administered perorally; type: functional
Mus musculus [25] = assay: Anthelmintic activity against Syphacia obvelata in mice at a dose of 25x1 mg/kg administered perorally; type: functional
Mus musculus [26] = assay: Anthelmintic activity against Syphacia obvelata in mice at a dose of 50x1 mg/kg administered perorally; type: functional
Rattus norvegicus [27] = assay: Anthelmintic activity against Hymenolepis nana in rats at a dose of 100x1 mg/kg administered perorally; type: functional
Rattus norvegicus [28] = assay: Anthelmintic activity against Hymenolepis nana in rats at a dose of 250x1 mg/kg administered perorally; type: functional
Rattus norvegicus [29] = assay: Anthelmintic activity against Hymenolepis nana in rats at a dose of 50x1 mg/kg administered perorally; type: functional
Rattus norvegicus [30] = assay: Filaricidal activity against Litomosoides carinii in cotton rats at a dosage of 100 mg/kg x 5 administered orally; type: functional; conditions: route oral
Rattus norvegicus [31] = assay: Filaricidal activity against Litomosoides carinii in cotton rats at a dosage of 10 mg/kg x 5 administered intraperitoneally at a day of 42; type: functional; conditions: route intraperitoneal
Mastomys natalensis [32] = assay: Filaricidal activity against Brugia malayi in Mastomys at a dosage of 200 mg/kg x 5 administered orally at a day of 21; type: functional; conditions: route oral
Mastomys natalensis [33] = assay: Filaricidal activity against Brugia malayi in Mastomys at a dosage of 200 mg/kg x 5 administered orally at a day of 42; conditions: route oral
Sigmodon hispidus [34] = assay: Filaricidal activity against Litomosoides carinii in cotton rats at a dosage of 100 mg/kg x 5 administered orally at a day of 8; conditions: route oral
Sigmodon hispidus [35] = assay: Filaricidal activity against Litomosoides carinii in cotton rats at a dosage of 100 mg/kg x 5 administered orally at a day of 21; conditions: route oral
Sigmodon hispidus [36] = assay: Filaricidal activity against Litomosoides carinii in cotton rats at a dosage of 100 mg/kg x 5 administered orally at a day of 42; conditions: route oral
Sigmodon hispidus [37] = assay: Filaricidal activity against Litomosoides carinii in cotton rats at a dosage of 10 mg/kg x 5 administered intraperitoneally at a day of 8; conditions: route intraperitoneal
Sigmodon hispidus [38] = assay: Filaricidal activity against Litomosoides carinii in cotton rats at a dosage of 10 mg/kg x 5 administered intraperitoneally at a day of 21; conditions: route intraperitoneal
Sigmodon hispidus [39] = assay: Filaricidal activity against Litomosoides carinii in cotton rats at a dosage of 10 mg/kg x 5 administered intraperitoneally at a day of 42; conditions: route intraperitoneal

COC(=O)Nc1nc2cc(C(=O)c3ccc4[nH]c(NC(=O)OC)nc4c3)ccc2[nH]1
Animals cured (Cricetinae gen. sp. [1]): 0% | Worm reduction (Cricetinae gen. sp. [1]): 40.4% | Animals cured (Cricetinae gen. sp. [2]): 50% | Worm reduction (Cricetinae gen. sp. [2]): 60% | Animals cured (Cricetinae gen. sp. [3]): 100% | Animals cured (Cricetinae gen. sp. [4]): 0% | Worm reduction (Cricetinae gen. sp. [4]): 0% | Worm reduction (Cricetinae gen. sp. [5]): 100% | Death (Mastomys natalensis [6]): 97% | Death (Mastomys natalensis [7]): 99% | Death (Mastomys natalensis [8]): 100% | Death (Mastomys natalensis [9]): 100% | Removal of microfilariae (Mastomys natalensis [10]): 63.9% | Removal of microfilariae (Mastomys natalensis [11]): 0% | Removal of microfilariae (Mastomys natalensis [12]): 94% | Removal of microfilariae (Mastomys natalensis [13]): 60.1% | Removal of microfilariae (Mastomys natalensis [14]): 89% | Removal of microfilariae (Mastomys natalensis [15]): 89.4% | Removal of microfilariae (Mastomys natalensis [16]): 0% | Removal of microfilariae (Mastomys natalensis [17]): 93% | Removal of microfilariae (Mastomys natalensis [18]): 0% | Removal of microfilariae (Mastomys natalensis [19]): 100% | Removal of microfilariae (Mastomys natalensis [20]): 0% | Removal of microfilariae (Mastomys natalensis [21]): 58.8% | Removal of microfilariae (Mastomys natalensis [22]): 100% | Removal of microfilariae (Mastomys natalensis [23]): 0% | Animals cured (Mus musculus [24]): 100% | Animals cured (Mus musculus [25]): 0% | Animals cured (Mus musculus [26]): 66.6% | Animals cured (Rattus norvegicus [27]): 50% | Animals cured (Rattus norvegicus [28]): 100% | Animals cured (Rattus norvegicus [29]): 16.6% | Death (Rattus norvegicus [30]): 100% | Death (Rattus norvegicus [31]): 100% | Removal of microfilariae (Mastomys natalensis [32]): 0% | Removal of microfilariae (Mastomys natalensis [33]): 30% | Removal of microfilariae (Sigmodon hispidus [34]): 72% | Removal of microfilariae (Sigmodon hispidus [35]): 80.9% | Removal of microfilariae (Sigmodon hispidus [36]): 100% | Removal of microfilariae (Sigmodon hispidus [37]): 65.6% | Removal of microfilariae (Sigmodon hispidus [38]): 100% | Removal of microfilariae (Sigmodon hispidus [39]): 100%
